Several values for one entry are separate records, joined by “and”; a condition that tells them apart may be missing. Equal values may be shown once. Where a name gives a salt, the structure may show the parent alone.

In one experiment the test system is Lewis lung carcinoma. The experiment is described as follows: Lewis lung carcinoma growth delay. In kind it is in vivo, mouse (male C57BL). To be noted: for Lewis lung carcinoma growth delay, Mean Days: NSAID days 4-18. The procedure: (§1) The Lewis lung tumor was carried in male C57BL mice (Taconic Laboratories, Germantown, N.Y.). For the experiments, 2×10^6 tumor cells prepared from a brei of several stock tumors were implanted subctaneously into the legs of male mice aged 8-10 weeks. […] Animals bearing Lewis lung tumors were treated daily with intraperitoneal Mino (10 mg/kg), Diflun (15 mg/kg) or Sulin (15 mg/kg) on days 4-18 following tumor implantation. When the tumors had reached a volume of approximately 100 mm^3 (day 7 after tumor cell implantation), cytotoxic therapy was initiated.
(§2) Therapy consisted of treatment with an antitumor alkylating agent, an antitumor antimetabolite, a non-steroidal anti-inflammatory drug (NSAID) and/or UPHS. […] CTX therapy consisted of three successive 150 mg/kg CTX doses administered by intraperitoneal injections on days 7, 9 and 11. BCNU therapy consisted of three successive 15 mg/Kg BCNU doses administered by intraperitoneal injections on days 7, 9 and 11. Therapy with the antimetabolite 5-fluorouracil(5-FU) consisted of 4 successive 40 mg/kg 5-FU doses administered by intraperitoneal injections daily on days 7 to 11. The 5-FU was purchased from Sigma Chemical Co., St. Louis, Mo. Fourteen doses of 10 mg/kg of NSAID were administered daily by intraperitoneal injections on days 4 to 18. UPHS was injected into the tail vein in 8 ml/kg doses daily on days 7-11.
The progress of each tumor was measured thrice weekly until it had reached a volume of 500 mm^3. Tumor growth delay was calculated as the number of days required for each treated tumor to reach a volume of 500 mm^3 as compared with untreated control tumors. Each treatment group comprised six animals and the experiment was repeated three times.
On the twentieth day after the subcutaneous tumor implantation, the delay in Lewis Lung Carcinoma tumor growth was evaluated. Tumor growth delay data is presented as the mean value ±SE calculated for the treatment group as compared with the control group.

In experiment [1] the test system is Lewis lung carcinoma lung metastases. The experiment is described as follows: Lung metastases of Lewis lung carcinoma. In kind it is in vivo, mouse (male C57BL). On the set-up: Lung Metastases: unit not given here. The procedure:
as §1
as §2, with “7-11. […]” for “7-11.”

Experiment [2] deals with intracranial 9L gliosarcoma. Description: Life span of rats with intracranial 9L gliosarcoma. In kind it is in vivo, rat (male Fischer 344). How it is done: (§3) The 9L gliosarcoma (9L) cells were obtained as a gift of 9L/SF gliosarcoma cells from Dr. Dennis Dean, University of California, San Francisco. These cells were maintained in culture in .varies.-MEM (Grand Island Biological Co., Grand Island, N.Y.) and supplemented with 10% fetal bovine serum (Sterile Systems, Inc., Logan, Utah) and with antibiotics. The 9L cells (4×10^4) in 10 μL of media without serum were implanted intracranially in male Fischer 344 rats (Taconic Farms, Germantown, N.Y.) weighing 200-250 gm on day 0. Each rat was anesthetized with sodium pentobarbital. A midline scalp incision was made and a hole was bored through the skull with 23 gauge needle at a point 2 mm lateral to the midline. The cell suspension was injected into the right frontal lobe at a depth of 3 mm from the dural surface. The needle was removed and the hole filled with dental cement. The scalp was sealed with a surgical clip. Two days later 9L cells (2×10^6) were implanted subcutaneously into the flank of each animal. When the tumors were approximately 100 mm^3 in volume, 7 days after tumor cell implantation, 8 ml/kg of UPHS was injected via the tail vein. After injecting the UPHS, administration of chemotherapeutic agents was initiated. […] BCNU therapy consisted of three 15 mg/kg BCNU doses administered by intraperitoneal injection days 7, 9 and 11. CTX and ifosfamide (IFOS) therapy consisted of three 100 mg/kg CTX or IFOS doses administered by intraperitoneal injection on days 7, 9 and 11. For the BCNU, CTX and IFOS therapies, UPHS was intravenously administered prior to each chemotherapeutic agent injection on days 7, 9 and 11. The IFOS was purchased from the Dana-Farber Cancer Institute. Survival of animals was monitored daily. Animals that were moribund or unable to reach food or water were killed by CO2 inhalation.
The effect of the treatments on the growth of the intracranial tumor was determined by the increase in life span of treated groups compared with the untreated controls. A percentage increase in life span of 25% or more is therapeutically significant.

Experiment [3] has as its system subcutaneous 9L gliosarcoma. The experiment is described as follows: Subcutaneous 9L gliosarcoma tumor growth delay. In kind it is in vivo, rat (male Fischer 344). The procedure:
as §3
The progress of each subcutaneous tumor was measured 3 times/week until it reached a volume of 500 mm^3. Tumor growth delay was calculated as the number of days for each individual tumor to reach 500 mm^3 compared with untreated controls. Each treatment group had 4 animals and the experiment was repeated twice. Days of tumor growth delay are the mean ±SE for the treatment group compared with the control.

Setting [4] is: WITH UPHS (8 ml/kg daily days 7-11), CDDP or PAM 10 mg/kg, CTX 3 x 150, BCNU 3 x 15, 5-FU 40 mg/kg.
Where [5] appears, read: WITHOUT UPHS, CDDP or PAM 10 mg/kg day 7, CTX 3 x 150, BCNU 3 x 15 mg/kg days 7, 9, 11, 5-FU 40 mg/kg.
Setting [6] is: relative statement among BCNU, CTX, CDDP, IFOS.

Consider `O=C(O)c1cc(-c2ccc(F)cc2F)ccc1O` [Diflun, Diflunisal], for which the “Lewis lung carcinoma growth delay, Mean Days” value is 0.9 ± 0.3 days with Lewis lung carcinoma (setting [4]) and 0.3 ± 0.2 days in the experiment on Lewis lung carcinoma (setting [5]). Also, the “Lung Metastases” value in experiment [1] (WITH UPHS) and in experiment [1] (WITHOUT UPHS) was 20 in each case. For the same molecule, the “Lung Metastases (% Large)” value in experiment [1] (WITH UPHS) worked out at 55%; in experiment [1] (WITHOUT UPHS) it was 51%.
Regarding `CC1=C(CC(=O)O)c2cc(F)ccc2/C1=C\c1ccc([S+](C)[O-])cc1` (centres unmarked) [Sulin, Sulindac], the “Lewis lung carcinoma growth delay, Mean Days” value with Lewis lung carcinoma (setting [4]) came out at 0.5 ± 0.3 days; with Lewis lung carcinoma (setting [5]) it was 1.2 ± 0.4 days. The “Effect of addition of NSAIDs (with or without UPHS) to cytotoxic agents on growth delay” value with Lewis lung carcinoma (mouse, in vivo) is listed as “providing the best NSAID results”. Further, the figures for the “Lung Metastases” value in experiment [1] (WITH UPHS) and in experiment [1] (WITHOUT UPHS) were 21 and 19, respectively. In addition, the “Lung Metastases (% Large)” value came out at 57% in experiment [1] (WITH UPHS) and 55% in experiment [1] (WITHOUT UPHS).
On to `O=P1(NCCCl)OCCCN1CCCl` (centres unmarked) [IFOS, ifosfamide], for which the “% Increased from Control (life span)” value in experiment [2] (Table II, vs untreated control) was 19% and 38%. For the same molecule, the “Survival Days” value in experiment [2] (Table II, control 26 ± 2.2 days, CDDP 8 mg/kg day 7, BCNU 3 x 15, CTX or IFOS 3 x 100 mg/kg days 7, 9, 11, UPHS 8 ml/kg) was 30.9 days and 35.9 days. The “Increase in life span with UPHS prior to the drug therapy” value in experiment [2] (UPHS prior to drug, vs untreated control) came to 38%. Moreover, the “Significance of increase in life span, drug alone” value in experiment [2] (drug alone, 25% or more is therapeutically significant) was “did not reach significance”. In experiment [2] (intracranial (life span) and subcutaneous (growth delay) 9L tumors), the “Increase in therapeutic response upon addition of UPHS” value is on record as “greatest increases in therapeutic response upon addition of UPHS”. Besides, in experiment [2] (setting [6]), the “Effectiveness against intracranial 9L tumors” value is given as “least effective treatments for intracranial 9L tumors”. Besides, the “Subcutaneous 9L Tumor Growth Delay, Mean Days” value in experiment [3] (Table III, days to 500 mm^3 vs control (19.5 ± 0.5 days), CDDP 8 mg/kg day 7, BCNU 3 x 15, CTX or IFOS 3 x 100 mg/kg, UPHS 8 ml/kg) is 10.4 ± 0.9 days. In addition, in experiment [3] (UPHS + drug vs drug alone), the “Increase in tumor growth delay by prior administration of UPHS” value came out at 1.4 fold. In addition, the “Effectiveness against subcutaneous 9L tumors” value in experiment [3] (setting [6]) is listed as “very effective treatments for subcutaneously growing 9L tumors”.
Take `CN(C)c1ccc(O)c2c1C[C@H]1C[C@H]3[C@H](N(C)C)C(O)=C(C(N)=O)C(=O)[C@@]3(O)C(O)=C1C2=O` [Mino, minocycline hydrochloride]: the “Lewis lung carcinoma growth delay, Mean Days” value worked out at 1.0 ± 0.4 days in the experiment on Lewis lung carcinoma (setting [4]) and 0.8 ± 0.3 days with Lewis lung carcinoma (setting [5]). In addition, the “Lung Metastases” value in experiment [1] (WITH UPHS) and in experiment [1] (WITHOUT UPHS) was 20 throughout. The “Lung Metastases (% Large)” value is reported as 65% in experiment [1] (WITH UPHS) and 50% in experiment [1] (WITHOUT UPHS).
With `O=c1[nH]cc(F)c(=O)[nH]1` [5-FU, 5-fluorouracil], the figures for the “Lewis lung carcinoma growth delay, Mean Days” value in the experiment with Lewis lung carcinoma (setting [4]) and in the experiment with Lewis lung carcinoma (setting [5]) were 6.3 ± 0.5 days and 5.4 ± 0.4 days, respectively. Besides, the “Increase of growth delay by addition of UPHS” value with Lewis lung carcinoma (drug + UPHS vs drug) is recorded as “also enhanced, to a lesser degree”. Besides, the “Lung Metastases” value in experiment [1] (WITH UPHS) stood at 15; in experiment [1] (WITHOUT UPHS) it was 21. The “Lung Metastases (% Large)” value in experiment [1] (WITH UPHS) is listed as 40%; in experiment [1] (WITHOUT UPHS) it was 52%.

The record behind these values is patent US5679638A, “Method for treating a tumor with a chemotherapeutic agent” (Biopure Corporation, priority 1993, dated 1997).
